Results from patent publication US12208088B2 (Genentech, Inc., priority 2018, dated 2025).

target: HPK1 (Homo sapiens (Human), UniProt Q92918); test: HPK1 Lantha binding assay ("Lanth"); conditions: binding assays; Morrison Ki fit
Procedure, shortened: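 TR-FRET binding competition using 2 nM HPK1, 2 nM Eu-anti-GST antibody and 15 nM Tracer222 at 23 °C. Compound was incubated 1 h with enzyme and antibody, then 1 h after tracer addition, with an 11-point 5-fold dilution series. Ki obtained from a Morrison fit that corrects for tracer concentration and Kd.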

HPK1, sequence (Q92918 1-346 limits assumed): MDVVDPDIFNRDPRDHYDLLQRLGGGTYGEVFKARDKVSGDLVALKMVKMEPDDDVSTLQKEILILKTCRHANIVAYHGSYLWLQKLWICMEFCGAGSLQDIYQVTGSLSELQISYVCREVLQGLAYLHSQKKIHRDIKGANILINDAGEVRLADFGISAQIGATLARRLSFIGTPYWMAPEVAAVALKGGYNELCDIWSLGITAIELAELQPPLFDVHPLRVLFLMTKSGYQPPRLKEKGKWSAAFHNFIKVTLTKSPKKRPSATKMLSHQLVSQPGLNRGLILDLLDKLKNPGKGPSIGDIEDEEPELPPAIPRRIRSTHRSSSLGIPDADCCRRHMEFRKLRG

| SMILES | Ki [nM] |
| --- | --- |
| CC(C)[C@@H]1C[C@@]12CNc1ncc(-c3ccc(N)c(C(=O)N(C)C)c3F)cc12 (single isomer, unassigned) [Compound 234c] | 103 |
| CC(C)C1C[C@]12CNc1ncc(-c3ccc(N)c(C(=O)N(C)C)c3F)cc12 (single isomer, unassigned) [Compound 234d] | 51.9 |
| Cn1cc([C@@H]2CCCCN2C(=O)c2cccc(-c3cnc4c(c3Cl)C3(CC=CC3)CN4)c2F)cn1 (single isomer, unassigned) [Compound 240b] | 112 |
| CC[C@@H]1C[C@@]12CNc1ncc(-c3ccc(N)c(C(=O)N(C)C)c3F)cc12 (single isomer, unassigned) [Compound 243c] | 63.1 |
| Cn1cc(C2CCCCN2C(=O)c2cccc(-c3cnc4c(c3Cl)[C@]3(CC[C@H](O)CC3)CN4)c2F)cn1 (single isomer, unassigned) [Compound 246b] | 316 |
| Cn1cc(C2CCCCN2C(=O)c2c(N)ccc(-c3cnc4c(c3Cl)[C@]3(CC[C@H](O)CC3)CN4)c2F)cn1 (single isomer, unassigned) [Compound 254b] | 109 |
| CN(C)C(=O)c1c(N)ccc(-c2cnc3c(c2Cl)[C@@]2(CC[C@@](C)(C#N)C2)CN3)c1F (single isomer, unassigned) [Compound 261b] | 37.1 |
| Cc1c(CC#N)ccnc1-c1cccc(-c2cnc3c(c2Cl)[C@]2(CC[C@](C)(C#N)C2)CN3)c1F (single isomer, unassigned) [Compound 266a] | 65.3 |
| Cc1c(CC#N)ccnc1-c1cccc(-c2cnc3c(c2Cl)[C@]2(CC[C@](C)(C(N)=O)C2)CN3)c1F (single isomer, unassigned) [Compound 267a] | 110 |
| O=C1CCCCN1c1cccc2c(-c3cnc4c(c3Cl)[C@@]3(CC[C@@H](O)C3)CN4)c[nH]c12 (single isomer, unassigned) [Compound 300b] | 270 |
| CO[C@@H]1C[C@@]2(CNc3ncc(-c4ccc(N)c(C(=O)N(C)C)c4F)c(Cl)c32)C[C@H]1O (stereo in doubt) [Compound 140a, 6-Amino-3-((1R,3S,4S)-4′-chloro-3-hydroxy-4-methoxy-1′,2′-dihydrospiro[cyclopentane-1,3′-pyrrolo[2,3-b]pyridin]-5′-yl)-2-fluoro-N,N-dimethylbenzamide] | 339 |
| CO[C@H]1C[C@]2(CNc3ncc(-c4ccc(N)c(C(=O)N(C)C)c4F)c(Cl)c32)C[C@@H]1O (stereo in doubt) [Compound 140b, 6-Amino-3-((1S,3R,4R)-4′-chloro-3-hydroxy-4-methoxy-1′,2′-dihydrospiro[cyclopentane-1,3′-pyrrolo[2,3-b]pyridin]-5′-yl)-2-fluoro-N,N-dimethylbenzamide] | 62.5 |
| CN(C)C(=O)c1c(N)ccc(-c2cnc3c(c2Cl)[C@]2(CN3)CC(O)C(n3ccnn3)C2)c1F (stereo in doubt) [Compound 146a, 6-Amino-3-((1R,3S,4S)-4′-chloro-3-hydroxy-4-(1H-1,2,3-triazol-1-yl)-1′,2′-dihydrospiro[cyclopentane-1,3′-pyrrolo[2,3-b]pyridin]-5′-yl)-2-fluoro-N,N-dimethylbenzamide] | 494 |
| CN(C)C(=O)c1cc(-c2cnc3c(c2)C2(CCCC2)CN3)ccc1N [Compound 1, 2-Amino-5-(1′,2′-dihydrospiro[cyclopentane-1,3′-pyrrolo[2,3-b]pyridin]-5′-yl)-N,N-dimethylbenzamide] | 28.8 |
| CN(C)C(=O)c1cc(-c2cnc3c(c2)C2(CC2)CN3)ccc1N [Compound 2, 2-Amino-5-(1′,2′-dihydrospiro[cyclopropane-1,3′-pyrrolo[2,3-b]pyridin]-5′-yl)-N,N-dimethylbenzamide] | 35.6 |
| O=C1COCCN1c1cccc(-c2cnc3c(c2)C2(CC2)CN3)c1 [Compound 3, 4-(3-(1′,2′-Dihydrospiro[cyclopropane-1,3′-pyrrolo[2,3-b]pyridin]-5′-yl)phenyl)morpholin-3-one] | 40.3 |
| CN(C)C(=O)c1cc(-c2cnc3c(c2)C2(CCC2)CN3)ccc1N [Compound 4, 2-Amino-5-(1′,2′-dihydrospiro[cyclobutane-1,3′-pyrrolo[2,3-b]pyridin]-5′-yl)-N,N-dimethylbenzamide] | 71.7 |
| O=C1COCCN1c1cccc(-c2cnc3c(c2)C2(CCC2)CN3)c1 [Compound 5, 4-(3-(1′,2′-Dihydrospiro[cyclobutane-1,3′-pyrrolo[2,3-b]pyridin]-5′-yl)phenyl)morpholin-3-one] | 98.7 |
| O=C1COCCN1c1cccc(-c2cnc3c(c2)C2(CC2)CN3)c1F [Compound 9, 4-(3-(1′,2′-Dihydrospiro[cyclopropane-1,3′-pyrrolo[2,3-b]pyridin]-5′-yl)-2-fluorophenyl)morpholin-3-one] | 38.9 |
| NS(=O)(=O)Cc1ccc(-c2cnc3c(c2)C2(CC2)CN3)cc1 [Compound 11, (4-(1′,2′-Dihydrospiro[cyclopropane-1,3′-pyrrolo[2,3-b]pyridin]-5′-yl)phenyl)methanesulfonamide] | 91.2 |
| CN(CCO)C(=O)c1cccc(-c2cnc3c(c2)C2(CC2)CN3)c1F [Compound 12, 3-(1′,2′-Dihydrospiro[cyclopropane-1,3′-pyrrolo[2,3-b]pyridin]-5′-yl)-2-fluoro-N-(2-hydroxyethyl)-N-methylbenzamide] | 37.6 |
| CN(C)C(=O)c1c(N)ccc(-c2cnc3c(c2)C2(CC2)CN3)c1Cl [Compound 14, 6-amino-2-chloro-3-(1′,2′-dihydrospiro[cyclopropane-1,3′-pyrrolo[2,3-b]pyridin]-5′-yl)-N,N-dimethylbenzamide] | 863 |

Stronger by Ki, values ahead:

| Ki [nM] | SMILES |
| --- | --- |
| 3.92 | CC(C)[C@H]1C[C@@]12CNc1ncc(-c3ccc(N)c(C(=O)N(C)C)c3F)cc12 (single isomer, unassigned) [Compound 234a] |
| 0.89 | Cn1cc([C@H]2CCCCN2C(=O)c2c(N)ccc(-c3cnc4c(c3Cl)C3(CC=CC3)CN4)c2F)cn1 (single isomer, unassigned) [Compound 239a] |
| 21 | Cn1cc([C@@H]2CCCCN2C(=O)c2c(N)ccc(-c3cnc4c(c3Cl)C3(CC=CC3)CN4)c2F)cn1 (single isomer, unassigned) [Compound 239b] |
| 3.87 | Cn1cc([C@H]2CCCCN2C(=O)c2cccc(-c3cnc4c(c3Cl)C3(CC=CC3)CN4)c2F)cn1 (single isomer, unassigned) [Compound 240a] |
| 5.78 | CC[C@H]1C[C@@]12CNc1ncc(-c3ccc(N)c(C(=O)N(C)C)c3F)cc12 (single isomer, unassigned) [Compound 243a] |
| 10.4 | CC[C@@H]1C[C@]12CNc1ncc(-c3ccc(N)c(C(=O)N(C)C)c3F)cc12 (single isomer, unassigned) [Compound 243b] |
| 25.1 | CC[C@H]1C[C@]12CNc1ncc(-c3ccc(N)c(C(=O)N(C)C)c3F)cc12 (single isomer, unassigned) [Compound 243d] |
| 10.3 | Cn1cc(C2CCCCN2C(=O)c2cccc(-c3cnc4c(c3Cl)[C@]3(CC[C@H](O)CC3)CN4)c2F)cn1 (single isomer, unassigned) [Compound 246a] |
| 23.1 | Cn1cc(C2CCCCN2C(=O)c2c(N)ccc(-c3cnc4c(c3)[C@]3(CC[C@H](O)CC3)CN4)c2F)cn1 (single isomer, unassigned) [Compound 253a] |
| 5.2 | Cn1cc(C2CCCCN2C(=O)c2c(N)ccc(-c3cnc4c(c3Cl)[C@]3(CC[C@H](O)CC3)CN4)c2F)cn1 (single isomer, unassigned) [Compound 254a] |
| 4.2 | CN(C)C(=O)c1c(N)ccc(-c2cnc3c(c2Cl)[C@]2(CC[C@](C)(C#N)C2)CN3)c1F (single isomer, unassigned) [Compound 261a] |
| 3.9 | Cc1c(CC#N)ccnc1-c1cccc(-c2cnc3c(c2Cl)[C@@]2(CC[C@@](C)(C#N)C2)CN3)c1F (single isomer, unassigned) [Compound 266b] |
| 0.39 | Cc1c(CC#N)ccnc1-c1cccc(-c2cnc3c(c2Cl)[C@@]2(CC[C@@](C)(C(N)=O)C2)CN3)c1F (single isomer, unassigned) [Compound 267b] |
| 24.9 | CN(C)CCN(C)C(=O)c1c(N)ccc(-c2cnc3c(c2Cl)[C@]2(CC[C@](C)(C#N)C2)CN3)c1F (single isomer, unassigned) [Compound 271a] |
| 13.3 | Cc1c(CC#N)ccnc1-c1cc(N)cc(-c2cnc3c(c2Cl)[C@]2(CC[C@](C)(C#N)C2)CN3)c1 (single isomer, unassigned) [Compound 274a] |
| 0.9 | Cc1c(CC#N)ccnc1-c1cc(N)cc(-c2cnc3c(c2Cl)[C@]2(CC[C@](C)(C#N)C2)CN3)c1 (single isomer, unassigned) [Compound 274b] |
| 27 | O=C1CCCCN1c1cccc2c(-c3cnc4c(c3Cl)[C@]3(CC[C@H](O)C3)CN4)c[nH]c12 (single isomer, unassigned) [Compound 300a] |
| 22.7 | CN(C)C(=O)c1c(N)ccc(-c2cnc3c(c2)C2(CC2)CN3)c1F [Compound 6, 6-Amino-3-(1′,2′-dihydrospiro[cyclopropane-1,3′-pyrrolo[2,3-b]pyridin]-5′-yl)-2-fluoro-N,N-dimethylbenzamide] |
| 21.6 | CN(CCO)C(=O)c1c(N)ccc(-c2cnc3c(c2)C2(CC2)CN3)c1F [Compound 7, 6-amino-3-(1′,2′-dihydrospiro[cyclopropane-1,3′-pyrrolo[2,3-b]pyridin]-5′-yl)-2-fluoro-N-(2-hydroxyethyl)-N-methylbenzamide] |
| 7.71 | CN(C)C(=O)c1c(N)ccc(-c2cnc3c(c2Cl)C2(CC2)CN3)c1F [Compound 8, 6-Amino-3-(4′-chloro-1′,2′-dihydrospiro[cyclopropane-1,3′-pyrrolo[2,3-b]pyridin]-5′-yl)-2-fluoro-N,N-dimethylbenzamide] |
| 12.7 | Nc1cc(-c2cnc3c(c2)C2(CC2)CN3)cc(-c2ncccc2CO)c1 [Compound 10, (2-(3-Amino-5-(1′,2′-dihydrospiro[cyclopropane-1,3′-pyrrolo[2,3-b]pyridin]-5′-yl)phenyl)pyridin-3-yl)methanol] |
| 21.6 | CC1(C)C(=O)Nc2ccc(-c3cnc4c(c3)C3(CC3)CN4)cc21 [Compound 13, 5-(1′,2′-dihydrospiro[cyclopropane-1,3′-pyrrolo[2,3-b]pyridin]-5′-yl)-3,3-dimethylindolin-2-one] |
